Measured values reported in paper PMC11998009, “Identification of a New FtsZ Inhibitor by Virtual Screening, Mechanistic Insights, and Structure–Activity Relationship Analyses” (ACS Infectious Diseases, 2025).
Values after ≈ are worked out from the molar mass of the structure shown. Read-outs that look alike come from different tables or passages of the source.

Columns and labels:
S. aureus ATCC25923 [1] = experiment: MIC determination by 2-fold microdilution, resazurin method; format: cell-based, Staphylococcus aureus; conditions: S. aureus ATCC25923, single drug; for MIC: Staphylococcus aureus
[2] = target: T1, S. aureus FtsZ protein (FtsZSa) (Staphylococcus aureus, UniProt P0A031); experiment: In vitro FtsZ GTPase activity (PK/LDH coupled assay); format: biochemical; set-up: Residual GTPase activity: concentration or dose not given beside the values; conditions: S. aureus FtsZ protein
T1 construct: made in house; host or cells: Escherichia coli BL21DE3
T1 sequence (P0A031 1-390): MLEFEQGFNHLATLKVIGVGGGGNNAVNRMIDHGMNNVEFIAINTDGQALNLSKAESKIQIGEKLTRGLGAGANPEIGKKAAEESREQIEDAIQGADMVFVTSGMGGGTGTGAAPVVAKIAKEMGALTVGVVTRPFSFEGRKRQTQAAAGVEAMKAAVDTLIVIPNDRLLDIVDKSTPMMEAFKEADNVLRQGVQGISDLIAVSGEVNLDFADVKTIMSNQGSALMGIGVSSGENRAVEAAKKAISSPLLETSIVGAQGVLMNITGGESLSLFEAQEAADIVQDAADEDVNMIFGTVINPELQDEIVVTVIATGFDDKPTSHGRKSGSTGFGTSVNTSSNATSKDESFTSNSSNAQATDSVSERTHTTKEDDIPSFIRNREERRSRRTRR
Description: In vitro FtsZ GTPase activity
FtsZSa and FtsZPa were expressed and purified as previously described.13,14 GTPase activity was assayed at 30°C using a pyruvate kinase–L-lactic dehydrogenase (PK/LDH) spectrophotometric coupled assay, as previously described15 with minor modification. The reaction mixture was first set up to contain 50 mM MES […]
phosphoenolpyruvate, and 4.8 μM of FtsZ. The assay was initiated by the addition of 1 mM GTP. The experiments were performed in triplicate. The inhibitory concentration that reduced the enzymatic activity by half (IC50) was determined using Prism 10. […]

FtsZSa [3] = target: T2, FtsZSa (Staphylococcus aureus, UniProt P0A031); experiment: FtsZSa polymerization, 90° light scattering
T2 sequence (P0A031 1-390): T1 sequence (P0A031 1-390)

FtsZSa [4] = target: T2, FtsZSa; experiment: FtsZSa polymerization, sedimentation assay; conditions: sedimentation assay of C11 derivatives
S. aureus ATCC25923 [5] = experiment: Checkerboard assay of C11 with antibiotics; format: cell-based; conditions: antibiotic combined with C11
[6] = test system: S. aureus cystic fibrosis clinical isolates; experiment: MIC for CF clinical isolates; format: cell-based
mammalian tubulin = experiment: Tubulin polymerization assay, fluorescence based; format: biochemical; conditions: 10 μM; DMSO control 3.78
S. aureus = conditions: cited from earlier work
[7] = test system: Mycobacterium tuberculosis; set-up: method as in PMID 21126020; conditions: cited from earlier work

With `COC(=O)c1ccc(CSc2ccc(-c3ccc4c(c3)OCO4)nn2)o1` [C1] the “MIC S. aureus” value (S. aureus ATCC25923 [1]) was no less than 256 µg/mL and the “Residual GTPase activity” value [2] was 78.5%.
With `CC(O)c1ccc(C2(CNC(=O)c3ccc(C(F)(F)F)nc3)CCCC2)s1` (centres unmarked) [C2] the “MIC S. aureus” value (S. aureus ATCC25923 [1]) was no less than 256 µg/mL and the “Residual GTPase activity” value [2] was 35.5%.
With `COc1ccccc1-c1cc(C(=O)NCC(N)=O)[nH]n1` [C5] the “MIC S. aureus” value (S. aureus ATCC25923 [1]) was no less than 256 µg/mL and the “Residual GTPase activity” value [2] was 95.3%.
In the case of `NC(=O)c1cc(OC2CN(C(=O)Nc3ccccc3F)C2)ccn1` [C6], the “MIC S. aureus” value (S. aureus ATCC25923 [1]) is reported as no less than 256 µg/mL and the “Residual GTPase activity” value [2] is reported as 92.8%.
With `COc1ccc(CC(=O)Nc2cccc(C(N)=O)c2)cc1` [C8] the “MIC S. aureus” value (S. aureus ATCC25923 [1]) was no less than 256 µg/mL, the IC50 [2] was 8.4 µM and the “Residual GTPase activity” value [2] was 11.8%.
With `Cc1ccc(-c2nnc(Nc3cccc(O)c3)c3ccccc23)cc1S(N)(=O)=O` [C9] the “MIC S. aureus” value (S. aureus ATCC25923 [1]) was no less than 256 µg/mL and the “Residual GTPase activity” value [2] was 34.3%.
In the case of `O=C(Oc1ccc(NC2=NS(=O)(=O)c3ccccc32)cc1)c1ccccc1` [C11.1], the IC50 (FtsZSa [3]) is reported as 71.7 µM, the MIC (S. aureus ATCC25923 [1]) is reported as no less than 128 µg/mL and the “Activity on FtsZSa polymerization” value (FtsZSa [4]) is reported as “mild activity”.
In the case of `O=S1(=O)C=C(Sc2nnc(-c3ccccc3)o2)c2ccccc21` [C11.2], the IC50 (FtsZSa [3]) is reported as 23.7 µM and the MIC (S. aureus ATCC25923 [1]) is reported as 8 µg/mL (≈ 23.4 µM).
Work on `O=S1(=O)N=C(Nc2nc3c(s2)CCCC3)c2ccccc21` [C11.3] yielded an MIC (S. aureus ATCC25923 [1]) of no less than 128 µg/mL.
For `CCOc1ccc(NC(=O)CN2C(=O)c3ccccc3S2(=O)=O)cc1` [C11.4], the IC50 (FtsZSa [3]) was 41.9 µM and the MIC (S. aureus ATCC25923 [1]) was no less than 128 µg/mL.
With `O=S1(=O)N=C(Nc2nc(-c3ccccc3)cs2)c2ccccc21` [C11.5] the IC50 (FtsZSa [3]) was 34.6 µM, the “MIC S. aureus” value (S. aureus ATCC25923 [1]) was no less than 128 µg/mL and the MIC (S. aureus ATCC25923 [1]) was no less than 128 µg/mL.
`O=C(c1ccco1)N1CCN(C2=NS(=O)(=O)c3ccccc32)CC1` [C11.6] gave an MIC (S. aureus ATCC25923 [1]) of no less than 128 µg/mL.
With `CCc1sc(NC2=NS(=O)(=O)c3ccccc32)nc1-c1ccccc1` [C11.7] the IC50 (FtsZSa [3]) was 29.4 µM, the “MIC S. aureus” value (S. aureus ATCC25923 [1]) was 8 µg/mL (≈ 21.7 µM) and the MIC (S. aureus ATCC25923 [1]) was 8 µg/mL (≈ 21.7 µM).
Compound `Cc1occc1-c1nnc(SC2=CS(=O)(=O)c3ccccc32)o1` [C11.8] has an IC50 (FtsZSa [3]) of 41.6 µM and an MIC (S. aureus ATCC25923 [1]) of 128 µg/mL (≈ 370 µM).
`O=S1(=O)N=C(Nc2nnc(SCc3ccccc3Cl)s2)c2ccccc21` [C11.9] gave an MIC (S. aureus ATCC25923 [1]) of 128 µg/mL (≈ 303 µM).
With `O=C(CSc1nnc(NC2=NS(=O)(=O)c3ccccc32)s1)Nc1ccc(Cl)cc1` [C11.10] the MIC (S. aureus ATCC25923 [1]) was no less than 128 µg/mL.
`Cc1ccc(-c2nnc(SC3=CS(=O)(=O)c4ccccc43)o2)cc1` [C11.11] showed an MIC (S. aureus ATCC25923 [1]) of no less than 128 µg/mL.
With `O=C(CN1C(=O)c2ccccc2S1(=O)=O)Nc1nc(-c2ccccc2)cs1` [C11.12] the MIC (S. aureus ATCC25923 [1]) was no less than 128 µg/mL.
For `CC(C)(O/N=C(\C(=O)N[C@@H]1C(=O)N2C(C(=O)[O-])=C(C[n+]3ccccc3)CS[C@H]12)c1csc(N)n1)C(=O)O` [Ceftazidime, reference compound], the MIC (S. aureus ATCC25923 [1]) was 16 µg/mL (≈ 29.3 µM) and the “Effect of the combination with C11” value (S. aureus ATCC25923 [5]) was “synergistic effect”.
For `CC[C@H]1OC(=O)[C@H](C)[C@@H](O[C@H]2C[C@@](C)(OC)[C@@H](O)[C@H](C)O2)[C@H](C)[C@@H](O[C@@H]2O[C@H](C)C[C@H](N(C)C)[C@H]2O)[C@](C)(O)C[C@@H](C)C(=O)[C@H](C)[C@@H](O)[C@]1(C)O` [Erythromycin, reference compound], the MIC (S. aureus ATCC25923 [1]) was 0.5 µg/mL (≈ 0.681 µM) and the “Effect of the combination with C11” value (S. aureus ATCC25923 [5]) was “additive effect”.
For `CC(=O)NC[C@H]1CN(c2ccc(N3CCOCC3)c(F)c2)C(=O)O1` [Linezolid, reference compound], the MIC (S. aureus ATCC25923 [1]) was 2 µg/mL (≈ 5.93 µM) and the “Effect of the combination with C11” value (S. aureus ATCC25923 [5]) was “additive effect”.
`C[C@@H](O)[C@H]1C(=O)N2C(C(=O)O)=C(S[C@@H]3CN[C@H](C(=O)N(C)C)C3)[C@H](C)[C@H]12` [Meropenem, reference compound] gave an MIC ([6]; S. aureus BG8 MRSA, single drug) of 2 µg/mL (≈ 5.22 µM), an MIC ([6]; S. aureus BG10 MRSA, single drug) of 16 µg/mL (≈ 41.7 µM) and an MIC ([6]; Staphylococcus aureus, MRSA, S. aureus BG6 MRSA, read-out: MIC) of 4 µg/mL (≈ 10.4 µM). For the same compound, the MIC ([6]; Staphylococcus aureus, MRSA, S. aureus BG7 MRSA smv, read-out: MIC) was 2 µg/mL (≈ 5.22 µM), the MIC ([6]; Staphylococcus aureus, MRSA, S. aureus BG8 MRSA, single drug, read-out: MIC) was 2 µg/mL (≈ 5.22 µM) and the MIC ([6]; Staphylococcus aureus, MRSA, S. aureus BG10 MRSA, single drug, read-out: MIC) was 16 µg/mL (≈ 41.7 µM). For the same compound, the MIC ([6]; Staphylococcus aureus, S. aureus BG1, read-out: MIC) was 0.5 µg/mL (≈ 1.3 µM), the MIC ([6]; Staphylococcus aureus, S. aureus BG2, read-out: MIC) was 0.5 µg/mL (≈ 1.3 µM) and the MIC ([6]; Staphylococcus aureus, S. aureus BG3, read-out: MIC) was 0.25 µg/mL (≈ 0.652 µM). For the same compound, the MIC ([6]; Staphylococcus aureus, S. aureus BG4, read-out: MIC) was 0.25 µg/mL (≈ 0.652 µM), the MIC ([6]; Staphylococcus aureus, S. aureus BG5, read-out: MIC) was 0.25 µg/mL (≈ 0.652 µM) and the MIC (S. aureus ATCC25923 [1]) was 0.25 µg/mL (≈ 0.652 µM). For the same compound, the “Effect of the combination with C11” value (S. aureus ATCC25923 [5]) was “synergistic effect”.
In the case of `CC(=O)O[C@H]1C(=O)[C@@]2(C)[C@H]([C@H](OC(=O)c3ccccc3)[C@]3(O)C[C@H](OC(=O)[C@H](O)[C@@H](NC(=O)c4ccccc4)c4ccccc4)C(C)=C1C3(C)C)[C@]1(OC(C)=O)CO[C@@H]1C[C@@H]2O` [Paclitaxel, paclitaxel, reference compound], the “Vmax of tubulin polymerization” value (mammalian tubulin) is reported as 21.45 mOD/min.
In the case of `CO[C@H]1/C=C/O[C@@]2(C)Oc3c(C)c(O)c4c(O)c(c(/C=N/N5CCN(C)CC5)c(O)c4c3C2=O)NC(=O)/C(C)=C\C=C\[C@H](C)[C@H](O)[C@@H](C)[C@@H](O)[C@@H](C)[C@H](OC(C)=O)[C@@H]1C` [Rifampicin, reference compound], the MIC (S. aureus ATCC25923 [1]) is reported as 0.03 µg/mL (≈ 0.0365 µM) and the “Effect of the combination with C11” value (S. aureus ATCC25923 [5]) is reported as “synergistic effect”.
For `NC(=O)c1c(F)ccc(OCc2nc3cc(C(F)(F)F)cnc3s2)c1F` [TX707], the “MIC S. aureus” value (S. aureus; ref 19−22) is given as 0.25 to 2 µg/mL.
For `CN1CCC(C(=O)NC(=O)c2c(F)ccc(OCc3nc4cc(C(F)(F)F)cnc4s3)c2F)CC1` [TX709], the “MIC S. aureus” value (S. aureus; ref 19−22) is listed as 2 to 4 µg/mL.
In the case of `CN(C)[C@@H]1C(O)=C(C(N)=O)C(=O)[C@@]2(O)C(O)=C3C(=O)c4c(O)cccc4[C@@](C)(O)[C@H]3C[C@@H]12` [Tetracycline, reference compound], the MIC (S. aureus ATCC25923 [1]) is reported as 0.5 µg/mL (≈ 1.13 µM) and the “Effect of the combination with C11” value (S. aureus ATCC25923 [5]) is reported as “additive effect”.
In the case of `O=C(Oc1cc(OC(=O)c2ccc(O)c(Cl)c2)c2ccccc2c1)c1ccc(O)c(Cl)c1` [UCM53], the “MIC S. aureus” value (S. aureus; ref 15−17) is given as 2 to 8 µg/mL.
For Benzimidazole, the “MIC Mtb H3tRv” value [7] is listed as 0.39 µg/mL.
